Source: publication PMC9786170, “The Pharmacological Potential of Novel Melittin Variants from the Honeybee and Solitary Bees against Inflammation and Cancer” (Toxins, 2022)

What was measured:
HEK293T cells [1] = experiment: cAMP inhibition assay (forskolin-stimulated, pGloSensor-22F); type: cell-based, human; settings: 5 µM forskolin, 2.5 and 25 µg/mL, pGloSensor luminescence, n = 4
Method: (§1) Figure 3 Melittin derivates alter the cellular concentration of cyclic adenosine monophosphate (cAMP). (A) For the cAMP induction assay, HEK293T cells transfected with pGloSensor-22F cAMP plasmid were treated with melittin derivates (0.25, 2.5, 25 µg/mL) in presence of the pGloSensor cAMP reagent, and luminescence was detected. (B) For the cAMP inhibition assay, HEK293T cells transfected with pGloSensor-22F cAMP plasmid were treated with melittin derivates (0.25, 2.5, 25 µg/mL) in presence of the pGloSensor cAMP reagent, stimulated with 5 µM forskolin, and luminescence was detected. Data are expressed as mean ± SEM. n = 4, * p ≤ 0.05 versus control.
(§2) HEK293T cells were transfected with pGloSensor-22F cAMP plasmid (E2301, Promega, Walldorf, Germany) using turbofect reagent (Thermofisher Scientific, Frankfurt am Main, Germany). […] For the induction assay (step one), the luminescence was detected (background, 3 measurements every 5 min) and then the melittin peptides (0.25, 2.5, 25 µg/mL) or 5 µM forskolin were added. The luminescence was detected (3 measurements every 5 min) using the plate reader (Spark, Tecan, Männedorf, Switzerland). For the inhibition assay (step tow), the melittin peptide-treated cells were then incubated with 5 µM forskolin and the luminescence was detected (3 measurements every 5 min). […]

[2] = cited from earlier work
Text: Therefore, the identification of biologically active derivatives of melittins with minimal toxicity to healthy cells is important for developing new pharmacological treatment options. In this study, we applied a broad in vitro screening approach of melittin variants from the honeybee and earlier solitary bee lineages to assess whether these ...

[3] = test system: IL-1β-activated rat knee joint cells; settings: by inhibiting I-κB degradation and NF-κB migration into the nucleus; cited from earlier work
Text: (§3) LPS induces iNOS expression and the release of NO in RAW264.7 macrophages. […] Previously, Tang et al. reported that Melt prev ...

[4] = test system: LPS-activated BV2 microglia; settings: by blocking NF-κB translocation; cited from earlier work
Text: as §3

HEK293T cells [5] = experiment: cAMP induction assay (pGloSensor-22F); type: cell-based, human; settings: 2.5 and 25 µg/mL, pGloSensor luminescence, n = 4
Method: as §1, §2

[6] = test system: triple-negative and HER2-enriched breast cancer subtypes; settings: cited from earlier work
Text: It was also reported that a positively charged C-terminal peptide end is responsible for the plasma membrane ...

[7] = test system: TNF-activated EC monolayer; experiment: Adhesion of THP-1 leukocytes onto TNF-activated endothelial cells; type: cell-based, human; settings: peptide 30 min, TNF 10 ng/mL 24 h, THP-1 adhesion 5 min, static, fluorescence, n = 2
Method: Figure 4 Influence of melittin derivates on inflammation-associated cell functions. (A,B) For the NO induction assay (A), RAW264.7 cells were treated with melittin peptides in the indicated concentrations for 24 h. For the NO inhibition assay (B), RAW264.7 cells were pretreated with melittin peptides in the indicated concentrations for 30 min and then stimulated with 100 ng/mL LPS for 24 h. NO was detected in the supernatant using the Griess method. […] THP-1 cell adhesion under static conditions. HUVECs were grown to confluence, preincubated with bee venoms for 30 min, and activated with TNF (10 ng/mL) for 24 h. For the leukocyte adhesion assay, untreated THP-1 cells were stained with CellTracker Green and were allowed to adhere to the treated HUVECs for 5 min. The adhesion of leukocytes onto Ecs was quantified by fluorescence measurements for all cell adhesion experiments. Data are expressed as means ± SEM, (A,B) n = 3, (C) n = 2. * p ≤ 0.05 vs. TNF (positive) control.
For the investigation of leukocyte adhesion under static conditions, HMEC-1 cells were seeded into 96-well plates and cultured until they became confluent. […] Then, the fluorescence signal from adherent THP-1 cells was measured by a Tecan Infinite F200 Pro microplate reader (Tecan, Männedorf, Switzerland) (excitation: 485 nm, emission: 535 nm).

MDA-MB-231 cells = experiment: Apoptosis of MDA-MB-231 cells (propidium iodide, flow cytometry); type: cell-based, human; settings: MDA-MB-231, 25 µg/mL, 24 h, 48 h and 72 h, PI, n = 2
Method: Figure 5 Anti-proliferative and apoptotic effect of melittin derivates on the triple-negative breast cancer cell line MDA-MB-231. (A) For the proliferation assay, cells were grown in low density and were treated after 24 h with melittin peptides at a concentration of 25 µg/mL for 72 h. Cells were stained with crystal violet solution. The amount of DNA-bound crystal violet was detected by absorbance measurements. (B) Melt3, 4, and Xac4, which are non-toxic to healthy cells, were further used to test effects on proliferation at 24 h (left) and 48 h (right) at different concentrations. (C) The effects on apoptosis were detected by flow cytometry after 24 h (left), 48 h (middle), and 72 h (right) of treatment. The number of apoptotic cells was determined by staining with propidium iodide (PI). Data are expressed as mean ± SEM. n = 2, * p ≤ 0.05 versus control. Sts, staurosporin 1 µM.
Apoptosis of primary HUVECs was detected according to the method of Nicoletti et al.. […] The percentage of cells with sub-diploidic DNA content was measured using a FACSVerse flow cytometer (BD Biosciences, Heidelberg, Germany).

Row | Substance | prevention of cAMP synthesis, forskolin-stimulated cells (HEK293T cells [1]) | degradation in the blood [2] | NF-κB activation [3] | iNOS expression and NO synthesis [4] | prevention of cAMP synthesis, unstimulated cells (HEK293T cells [5]) | apoptosis of breast cancer subtypes [6] | adhesion of THP-1 leukocytes onto endothelial cells [7] | apoptosis / cancer cell death (MDA-MB-231 cells)
1 | melittin [Melt, reference compound] | almost completely prevented cAMP synthesis | fast degradation in the blood | prevents NF-κB activation | reduced LPS-activated BV2 microglia iNOS expression and NO synthesis | almost completely prevented cAMP synthesis | induce apoptosis | – | –
2 | xylopin [Xac4] | – | – | – | – | – | – | reducing the inflammation-associated interaction of endothelial cells with leukocytes | trend of decreased proliferation and increased apoptosis
